From patent publication US20240067679A1, “SARS-COV-2 PROTEIN-DERIVED PEPTIDE AND VACCINE CONTAINING SAME” (Onco Therapy Science, Inc., priority 2021, published 2024)
Like-named read-outs stand apart in the source and are kept apart here.

Tests used:
[1] = system: HLA-A*02:01-expressing target cells (T2 cells); assay type: cell-based, human
[2] = system: HLA-A*24:02-expressing target cells (TISI cells); assay type: cell-based, human
[3] = system: HLA-A*02:01-expressing target cells (T2 cells); assay type: cell-based, human; remark: listed apart in the source
[4] = system: HLA-A*02:06-expressing target cells (HEV0011 cells); assay type: cell-based, human
[5] = system: HLA-A*02:06-expressing target cells (HEV0011 cells); assay type: cell-based, human; remark: listed apart in the source
[6] = system: HLA-A*24:02-expressing target cells (TISI cells); assay type: cell-based, human; remark: listed apart in the source
[7] = molecular target: T1, SARS-CoV-2 ORF1ab peptide on HLA-A*02:01 (human); assay: cytokine release
T1 peptide: NVLAWLYAAV

[8] = molecular target: T2, SARS-CoV-2 ORF1ab peptide on HLA-A*02:01 (human); assay: cytokine release
T2 peptide: TLMIERFVSL

[9] = cells induced from HLA-A*02:01-positive PBMCs, peptide-pulsed T2 cells vs T2 cells not pulsed
[10] = cells induced from HLA-A*24:02-positive PBMCs, peptide-pulsed TISI cells vs TISI cells not pulsed
[11] = HLA-A*02:01-restricted CTL lines, peptide-pulsed T2 cells
[12] = HLA-A*02:06-restricted CTL lines, peptide-pulsed HEV0011 cells
[13] = cells induced from HLA-A*02:06-positive PBMCs, peptide-pulsed HEV0011 cells vs HEV0011 cells not pulsed

Molecule: FTYASALWEI [Peptide 7]
- Peptide-specific IFN-γ production (ELISPOT) [1]: observed
- Peptide-specific IFN-γ production (ELISPOT) [2]: no peptide-specific IFN-γ production was observed
- IFN-γ production by CTL lines (ELISA) [3]: observed
- IFN-γ production by CTL lines (ELISA) [4]: observed
- Peptide-specific IFN-γ production (ELISPOT) [5]: observed

Molecule: YSFLPGVYSV (a peptide derived from ORF1ab polyprotein of SARS-CoV-2) [Peptide 14, SARS-CoV-2 ORF1ab-derived 10 mer peptide, position 3098]
- Peptide-specific IFN-γ production (ELISPOT) [1, 9]: observed
- Peptide-specific IFN-γ production (ELISPOT) [2, 10]: no peptide-specific IFN-γ production was observed

Molecule: LMYKGLPWNV [Peptide 2]
- Peptide-specific IFN-γ production (ELISPOT) [1]: observed
- Peptide-specific IFN-γ production (ELISPOT) [2]: no peptide-specific IFN-γ production was observed
- IFN-γ production by CTL lines (ELISA) [3]: observed
- Peptide-specific IFN-γ production (ELISPOT) [5]: not observed

Molecule: TLEPEYENSV [Peptide 13, SARS-CoV-2 ORF1ab-derived 10 mer peptide, position 5740]
- Peptide-specific IFN-γ production (ELISPOT) [1, 9]: observed
- Peptide-specific IFN-γ production (ELISPOT) [2, 10]: no peptide-specific IFN-γ production was observed

Molecule: MMGFKMNYQV (a peptide derived from ORF1ab polyprotein of SARS-CoV-2) [Peptide 5, SARS-CoV-2 ORF1ab-derived 10 mer peptide, position 5982]
- Peptide-specific IFN-γ production (ELISPOT) [1, 9]: observed
- Peptide-specific IFN-γ production (ELISPOT) [2, 10]: no peptide-specific IFN-γ production was observed

Molecule: MMILSDDAV (a peptide derived from ORF1ab polyprotein of SARS-CoV-2) [Peptide 8, SARS-CoV-2 ORF1ab-derived 9 mer peptide, position 5147]
- Peptide-specific IFN-γ production (ELISPOT) [1, 9]: not observed

Molecule: FGMSRIGMEV (a peptide derived from N polyprotein of SARS-CoV-2) [Peptide 9, SARS-CoV-2 N protein-derived 10 mer peptide, position 315]
- Peptide-specific IFN-γ production (ELISPOT) [1, 9]: observed
- Peptide-specific IFN-γ production (ELISPOT) [2, 10]: no peptide-specific IFN-γ production was observed

Molecule: YMPASWVMRI (a peptide derived from ORF1ab polyprotein of SARS-CoV-2) [Peptide 4, SARS-CoV-2 ORF1ab-derived 10 mer peptide, position 3654]
- Peptide-specific IFN-γ production (ELISPOT) [1, 9]: observed
- Peptide-specific IFN-γ production (ELISPOT) [2, 10]: no peptide-specific IFN-γ production was observed
- IFN-γ production by CTL lines (ELISA) [3, 11]: observed
- IFN-γ production by CTL lines (ELISA) [4, 12]: observed
- Peptide-specific IFN-γ production (ELISPOT) [5, 13]: observed

Molecule: NVLAWLYAAV (a peptide derived from ORF1ab polyprotein of SARS-CoV-2) [Peptide 12, SARS-CoV-2 ORF1ab-derived 10 mer peptide, position 3466]
- Peptide-specific IFN-γ production (ELISPOT) [1, 9]: observed
- Peptide-specific IFN-γ production (ELISPOT) [2, 10]: no peptide-specific IFN-γ production was observed
- IFN-γ production by CTL lines (ELISA) [3, 11]: observed
- IFN-γ production by CTL lines (ELISA) [4, 12]: observed
- Peptide-specific IFN-γ production (ELISPOT) [5, 13]: observed

Molecule: TLMIERFVSL (a peptide derived from ORF1ab polyprotein of SARS-CoV-2) [Peptide 10, SARS-CoV-2 ORF1ab-derived 10 mer peptide, position 5245]
- Peptide-specific IFN-γ production (ELISPOT) [1, 9]: observed
- Peptide-specific IFN-γ production (ELISPOT) [2, 10]: no peptide-specific IFN-γ production was observed
- IFN-γ production by CTL lines (ELISA) [3, 11]: observed
- IFN-γ production by CTL lines (ELISA) [4, 12]: observed
- Peptide-specific IFN-γ production (ELISPOT) [5, 13]: observed

Molecule: FVLWAHGFEL [Peptide 3]
- Detection of tetramer-positive CD8-positive T cells recognizing the peptide (CD8-positive T cells): detected
- Peptide-specific IFN-γ production (ELISPOT) [1]: observed
- Peptide-specific IFN-γ production (ELISPOT) [2]: observed
- IFN-γ production by CTL lines (ELISA) [3]: observed
- IFN-γ production by CTL lines (ELISA) [6]: observed
- IFN-γ production by CTL lines (ELISA) [4]: observed
- Peptide-specific IFN-γ production (ELISPOT) [5]: observed

Molecule: FMIDVQQWGF (a peptide derived from ORF1ab polyprotein of SARS-CoV-2) [Peptide 15, SARS-CoV-2 ORF1ab-derived 10 mer peptide, position 6165]
- Peptide-specific IFN-γ production (ELISPOT) [1, 9]: observed
- Peptide-specific IFN-γ production (ELISPOT) [2, 10]: no peptide-specific IFN-γ production was observed
- IFN-γ production by CTL lines (ELISA) [3, 11]: observed
- IFN-γ production by CTL lines (ELISA) [4, 12]: observed
- Peptide-specific IFN-γ production (ELISPOT) [5, 13]: observed

Molecule: SLFDMSKFPL (a peptide derived from ORF1ab polyprotein of SARS-CoV-2) [Peptide 1, SARS-CoV-2 ORF1ab-derived 10 mer peptide, position 7041]
- Peptide-specific IFN-γ production (ELISPOT) [1, 9]: observed
- Peptide-specific IFN-γ production (ELISPOT) [2, 10]: no peptide-specific IFN-γ production was observed

Molecule: YVYNPFMIDV (a peptide derived from ORF1ab polyprotein of SARS-CoV-2) [Peptide 11, SARS-CoV-2 ORF1ab-derived 10 mer peptide, position 6160]
- Peptide-specific IFN-γ production (ELISPOT) [1, 9]: observed
- Peptide-specific IFN-γ production (ELISPOT) [2, 10]: observed
- IFN-γ production by CTL lines (ELISA) [3, 11]: observed
- IFN-γ production by CTL lines (ELISA) ([6]; HLA-A*24:02-restricted CTL lines, peptide-pulsed TISI cells): observed
- IFN-γ production by CTL lines (ELISA) [4, 12]: observed
- Peptide-specific IFN-γ production (ELISPOT) [5, 13]: observed

B1: Peptide 12-responsive TCR-1 (TCR)
alpha TRAV1-2 TRAJ20 CDR3: CAVRDPRNDYKLSF
beta TRBV27 TRBJ1-1 CDR3: CATQVNTEAFF
- binding result [7]: recognises

B2: Peptide 12-responsive TCR-2 (TCR)
alpha TRAV24 TRAJ29 CDR3: CAFLSGNTPLVF
beta TRBV27 TRBJ1-6 CDR3: CASSPAAYSPLHF
- binding result [7]: recognises

B3: Peptide 10-responsive TCR (TCR)
alpha TRAV8-6 TRAJ36 CDR3: CAITGANNLFF
beta TRBV20-1 TRBJ1-5 CDR3: CSAEDRGSNSNQPQHF
- binding result [8]: recognises
